Here are results for two compounds from patent US20250188417A1, “CARDIOMYOCYTES AND COMPOSITIONS AND METHODS FOR PRODUCING THE SAME” (President and Fellows of Harvard College, priority 2021, published 2025).

One test concerns BJRiPS-CMs. Briefly: Western blot and densitometry (MDM2, p53, TNNI3) and cell cycle analysis of BJRiPS-derived cardiomyocytes. The format is cell-based, human. Particulars: pifithrin-α 10 μM with Torin1 200 nM for 7 days. The procedure:
FIG. 6A provides a schematic showing proposed mechanism of cardiomyocyte maturation. T3, triiodothyronine. […] FIG. 6C provides representative Western blot of MDM2, p53, TNNI3, and β-tubulin from BJRiPS-derived cardiomyocyte lysates treated with control (DMSO), nutlin-3a Å˜24 hours (10 μmol/L), Torin1 Å˜7 days (200 nmol/L), or Torin1 Å˜7 days (200 nmol/L)+nutlin-3a (10 μmol/L) for 24 hours beginning ≈2 days after onset of beating (nutlin-3a was only administered during the first 24 hours of Torin1 treatment). Cells harvested on final day of treatment, BJRiPS-CMs. […] DMSO indicates dimethylsulfoxide; mTOR, mechanistic target of rapamycin; and TNNT2+ BJRiPS-CMs, troponin T2, cardiac type-positive BJ fibroblast-derived RNA-induced pluripotent stem cell-derived cardiomyocytes.
FIG. 14A provides representative western blot of p53, phospho-53, p21 (CDKN1a), GATA4, NKX2.5, and β-tubulin from Gibco iPS-CM lysates treated with 0 (DMSO), 10, 50, or 200 nM Torin1 for 7 days starting ˜2 days after onset of beating. Cells harvested on final day of treatment. FIG. 14B provides cell cycle analysis showing percentage of TNNT2+ BJRiPS-CMs in G0, G1 or S/G2/M phases after treatment with vehicle (DMSO, dimethylsulfoxide), pifithrin-α (10 μM) for 1 week, Torin1 (200 nM) for 7 days or simultaneous treatment with pifithrin-α (10 μM) and Torin1 (200 nM) for 7 days starting ˜2 days after onset of beating. n=3 per group, *p<0.05, **p<0.01, ***p<0.001, ****p<0.0001 by two-way ANOVA with Tukey's multiple comparisons test. FIG. 14C provides representative western blot of p53, TNNI3, p21, and β-tubulin from BJRiPS-derived cardiomyocyte lysates treated with control (DMSO), Torin1 (200 nM), pifithrin-α (10 PM) or Torin1 (200 nM)+pifithrin-α (10 μM) for 7 days beginning ˜2 days after onset of beating. Cells harvested on final day of treatment.

The test system of test [1] is iPSC-CMs. Put plainly: Flow cytometry of marker expression and live cells in iPSC-CMs treated in 3D culture. The format is cell-based, human. The method, then:
(§1) The UCSD142i-86-1 cell line was used to generate preliminary data. UCSD142i-86-1 cells were differentiated into cardiomyocytes according to previously published protocols (9) adapted to three-dimensional culture in the laboratory. Two days after onset of beating (around day 9 of differentiation), cardiomyocytes were treated with vehicle (DMSO) or different concentrations of quercetin for different time periods. Cells were harvested for qPCR, western, or flow cytometry at different time points.
On the technique in general: Flow cytometry measures light scatter and fluorescence of single cells or particles in a stream.

Test [2] has as its system iPSC-CMs. Briefly: qPCR of PPARGC1a mRNA in iPSC-CMs treated in 3D culture. The format is cell-based, human. Particulars: 200 μM for 3 days, FIG. 5. The procedure: as §1
Background: Real-time PCR tracks product formation cycle by cycle.

A further test concerns senescent tumor cells. The conditions noted are these: literature reference; cited from earlier work.
Where [3] appears, read: treatment of iPSC-CMs in 3D culture.

Entries after “also recorded” stand apart in the source; their conditions may differ.

Consider `Cc1ccc(C(=O)Cn2c3c(sc2=N)CCCC3)cc1` [pifithrin-α], for which, in the test on BJRiPS-CMs, the “effects of Torin1 (cell cycle, TNNI3)” value was “inhibited”.

For `O=c1c(O)c(-c2ccc(O)c(O)c2)oc2cc(O)cc(O)c12` [quercetin], the “percentage of live cells” value with iPSC-CMs [1] (200 μM, 2 or 5 day treatment, 3D culture, flow cytometry, FIG. 4A) was “decreases”. In addition, in the test on iPSC-CMs [1] (3D culture, flow cytometry, FIG. 2E / FIG. 3A), the “percentage of TNNT2+ iPSC-CMs expressing Kir2.1” value is “increases”. In addition, in the test on iPSC-CMs [1] (3D culture, flow cytometry, FIG. 2F / FIG. 3B), the “mean fluorescence intensity (MFI) of Kir2.1” value is recorded as “increases”. In the test on iPSC-CMs [1] (3D culture, flow cytometry, FIG. 2G / FIG. 3C), the “% of p53+ TNNT2+ iPSC-CMs” value is recorded as “increases”. The “mean fluorescence intensity of p53” value in the test on iPSC-CMs [1] (3D culture, flow cytometry, FIG. 3D) is “increases”. Moreover, the iPSC-CM maturation result in the test with iPSC-CMs [1] (3D suspension culture, preliminary data) is listed as “can enhance”. Moreover, in the test on iPSC-CMs [1] (2 day treatment at 20 or 200 μM, 3D culture, flow cytometry, FIG. 4B), the “percentage of TNNT2+ cells out of live cells (cardiomyocytes)” value was “increases”. For the same compound, in the test with iPSC-CMs [1] (setting [3]), the “expression of Kir2.1” value is recorded as “increases” and the “expression of p53” value is on record as “increases”. Also, the “mRNA expression of PPARGC1a” value in the test on iPSC-CMs [2] is on record as “increases; also recorded: significantly increased”. Also, the “apoptosis in senescent tumor cells” value with senescent tumor cells is recorded as “can induce apoptosis”.
